Data on 18 compounds can be found in patent US10570108B2, “Substituted benzofuran compounds for the treatment of hepatitis C” (BRISTOL-MYERS SQUIBB COMPANY, priority 2015, dated 2020).

The first data set deals with HCV replicon. Kind of data set: HCV replicon luciferase assay. Particulars: Hepatitis C virus, Huh-7, 72 h. In kind it is cell-based. The protocol:
Cell lines. The cell lines used to evaluate compounds consist of a human hepatocyte derived cell line (Huh-7) that constitutively expresses a genotype 1b (Con-1) HCV replicon or a genotype 1b (Con-1) HCV replicon with an asparagine replacing the cysteine at amino acid 316, or a genotype 2a (JFH-1) replicon, containing a Renilla luciferase reporter gene. These cells were maintained in Dulbecco's modified Eagle medium (DMEM) containing 10% FBS, 100 U/mL penicillin/streptomycin and 1.0 mg/mL G418.
HCV replicon luciferase assay. To evaluate compound efficacy, titrated compounds were transferred to sterile 384-well tissue culture treated plates, and the plates were seeded with HCV replicon cells (50 μL at a density of 2.4×10^3 cells/well) in DMEM containing 4% FBS (final DMSO concentration at 0.5%). After 3 days incubation at 37° C., cells were analyzed for Renilla Luciferase activity using the EnduRen substrate (Promega cat #E6485) according to the manufacturer's directions. Briefly, the EnduRen substrate was diluted in DMEM and then added to the plates to a final concentration of 7.5 μM. The plates were incubated for at least 1 h at 37° C. then read on a Viewlux Imager (PerkinElmer) using a luminescence program. The 50% effective concentration (EC50) was calculated using the four-parameter logistic formula noted above.
As for `CNC(=O)c1c(-c2ccc(F)cc2)oc2cc([N+](=O)[O-])c(-c3cccc(C(=O)N(Cc4ccc(OC)cc4OC)C(CO)(CO)CO)c3)cc12` [Compound 3002], the EC50 is > 1000 nM. Same read-out and setting: next, `CNC(=O)c1c(-c2ccc(F)cc2)oc2cc(N)c(-c3cccc(C(=O)NC(CO)(CO)CO)c3)cc12` [Compound 3003]: > 1000 nM; `CCNc1cc2oc(-c3ccc(F)cc3)c(C(=O)NC)c2cc1-c1cccc(C(=O)NC(CO)(CO)CO)c1` [Compound 3004]: < 100 nM; `CCN(CC)c1cc2oc(-c3ccc(F)cc3)c(C(=O)NC)c2cc1-c1cccc(C(=O)NC(CO)(CO)CO)c1` [Compound 3005]: < 100 nM. The same measure, in the same setting: next, `CCNc1cc2oc(-c3ccc(F)cc3)c(C(=O)NC)c2cc1-c1cccc(C(=O)NC2CCNC2=O)c1` (stereo not shown) [Compound 4001]: 58.8 nM; `CCNc1cc2oc(-c3ccc(F)cc3)c(C(=O)NC)c2cc1-c1cccc(C(=O)NCC(C)(C)C#N)c1` [Compound 4002]: < 100 nM.

On to `C#CC1(NC(=O)c2cccc(-c3cc4c(C(=O)NC)c(-c5ccc(F)cc5)oc4cc3NCC)c2)CCCCC1` [Compound 4003], for which the EC50 was < 100 nM. On the same count and under the same terms, next, `CCNc1cc2oc(-c3ccc(F)cc3)c(C(=O)NC)c2cc1-c1cccc(C(=O)NC2(C#N)CCN(Cc3ccccc3)CC2)c1` [Compound 4004]: < 100 nM; `C#CC1(NC(=O)c2cccc(-c3cc4c(C(=O)NC)c(-c5ccc(F)cc5)oc4cc3N(CC)S(C)(=O)=O)c2)CCCCC1` [Compound 5001]: < 100 nM. With `CCN(c1cc2oc(-c3ccc(F)cc3)c(C(=O)NC)c2cc1-c1cccc(C(=O)NC2(C(F)(F)F)CCCC2)c1)S(C)(=O)=O` [Compound 5002], the response was half-maximal at 7 nM (EC50). Same read-out and setting: for `CCN(c1cc2oc(-c3ccc(F)cc3)c(C(=O)NC)c2cc1-c1cccc(C(=O)N[C@@H]2CCNC2=O)c1)S(C)(=O)=O` [Compound 5003] the value was 100 to 1000 nM; for `CCN(c1cc2oc(-c3ccc(F)cc3)c(C(=O)NC)c2cc1-c1cccc(C(=O)N[C@H]2CCNC2=O)c1)S(C)(=O)=O` [Compound 5004], 100 to 1000 nM; for `CCN(c1cc2oc(-c3ccc(F)cc3)c(C(=O)NC)c2cc1-c1cccc(C(=O)NC2(C#N)CCN(C(=O)OC(C)(C)C)CC2)c1)S(C)(=O)=O` [Compound 5005], < 100 nM.

On to `CCN(c1cc2oc(-c3ccc(F)cc3)c(C(=O)NC)c2cc1-c1cccc(C(=O)NC2(C#N)CCc3cc(OC)ccc3C2)c1)S(C)(=O)=O` (stereo not shown) [Compound 5006], for which the half-maximal effective concentration (EC50) was < 100 nM. The same measure, in the same setting: for `CCN(c1cc2oc(-c3ccc(F)cc3)c(C(=O)NC)c2cc1-c1cccc(C(=O)NC2(C#N)CCOCC2)c1)S(C)(=O)=O` [Compound 5007] the value was 4.2 nM. The same measure, in the same setting: for `CNC(=O)c1c(-c2ccc(F)cc2)oc2cc(N(CC3CC3)S(C)(=O)=O)c(-c3cccc(C(=O)NC(C)(C)C=O)c3)cc12` [Compound 6001] the value was < 100 nM. The same measure, in the same setting: next, `CNC(=O)c1c(-c2ccc(F)cc2)oc2cc(N(CCF)S(C)(=O)=O)c(-c3cccc(C(=O)NCC4CCCC4NC(=O)OC(C)(C)C)c3)cc12` (stereo not shown) [Compound 7001]: < 100 nM.

In another data set the test system is HCV.
Experiment: not given
To be noted: extended dosing of the combination regimens; cited from earlier work.
Turning to `CNC(=O)c1c(-c2ccc(F)cc2)oc2cc(N(CCO)S(C)(=O)=O)c(C3CC3)cc12` [HCV-796], the hepatic toxicity entry is given as “hepatic toxicity observed”.

The data set is the same for the next values; noted with them: single agent or combined with interferon and ribavirin; cited from earlier work.
With `CNC(=O)c1c(-c2ccc(F)cc2)oc2cc(N(CCO)S(C)(=O)=O)c(C3CC3)cc12` [HCV-796], the “HCV RNA levels in patients” value was “reduce HCV RNA levels”.
